Reference: BigSolDB 2.1

OC[C@H]1O[C@H](O[C@]2(CCl)O[C@H](CCl)[C@@H](O)[C@@H]2O)[C@H](O)[C@@H](O)[C@H]1Cl
solubility (mole fraction)
Settings | in ethanol | in isopropanol | in methanol | in water
283.15 K | 0.00843 | – | 0.0307 | 0.0107
288.15 K | 0.00976 | 0.00389 | 0.0315 | 0.0115
293.15 K | 0.012 | 0.0044 | 0.0328 | 0.0123
298.15 K | 0.0143 | 0.00533 | 0.0343 | 0.0146
303.15 K | 0.0158 | 0.00624 | 0.0362 | 0.0164
308.15 K | 0.0184 | 0.00789 | 0.0383 | 0.0182
313.15 K | 0.0202 | 0.00854 | 0.0415 | 0.0195
318.15 K | 0.0228 | 0.011 | 0.0449 | 0.0223
323.15 K | 0.0248 | 0.0128 | 0.0485 | 0.0259
328.15 K | 0.0281 | 0.015 | 0.0524 | 0.0285
333.15 K | 0.0322 | 0.0171 | 0.0596 | 0.0314
